Test results as given in the supplement of paper PMC11208160.

assay: recombinant barcode read abundance after kanamycin selection (control-corrected) (log10(CPM+1)); higher = more efficient recombination; sequences stand for … in AGTGCAGAGAAAATCGGCCAGTTTTCTCTGCCTGCAGTCCGCATGCCGT…AGATTTATGCAGCGGACTGCCTTTCTCCCAAAGTGATAAACCGGACAGTATCATGGACCGGTTTTCCCGGTAATCCGTATTTGCAAGGTTGGTTTCACT; site = the 11-nt target
Outline: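 Targets were screened in pooled form in E. coli against IS621 bridge RNA target-binding loops. Recombination efficiency is based on barcode counts at recombinant junctions in counts per million, averaged and corrected for the control. Numbers are shown as log10(CPM+1), with duplicate plates on chloramphenicol/ampicillin LB agar (control) or chloramphenicol/ampicillin/kanamycin with 0.1 mM IPTG.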
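Note: IS621 recombinase and bridge RNA in Escherichia coli cells.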

Sequence | recombinant barcode read abundance (log10)
AGCAGTACTTGGGTTCTAACCTGTTGCTA (site AGCAGTACTTA) | 0.299
AGCAGTACTTGGGTTCTAACCTGTTGCTA (site TTGGAGGCTAG) | 0.248
AGCATCTCTTGGGTTCTAACCTGTTGCCG (site AGCATCTCTCG) | 0.222
AGCATCTCTTGGGTTCTAACCTGTTGCCG (site CCTTGTACTAA) | 0.0503
AGCATTCCTTGGGTTCTAACCTGTTGCCT (site AGCAGTGCTAG) | 0.144
AGCATTCCTTGGGTTCTAACCTGTTGCCT (site AGCATTCCTAG) | 0.394
AGCCCTCCTTGGGTTCTAACCTGTTGCTC (site AGCCCTCCTAA) | 0.01
AGCCCTCCTTGGGTTCTAACCTGTTGCTC (site AGCCCTCCTCA) | 0.26
AGCCCTCCTTGGGTTCTAACCTGTTGCTC (site AGCCCTCCTGA) | 1.19
AGCCCTCCTTGGGTTCTAACCTGTTGCTC (site AGCCCTCCTTA) | 0.0233
AGCGGTCCTTGGGTTCTAACCTGTTGCCT (site AGCGGACCTAG) | 0.797
AGCGGTCCTTGGGTTCTAACCTGTTGCCT (site AGCGGCCCTAG) | 1.05
AGCGGTCCTTGGGTTCTAACCTGTTGCCT (site AGCGGGCCTAG) | 0.409
AGCGGTCCTTGGGTTCTAACCTGTTGCCT (site AGCGGTCCTAG) | 1.89
AGCGTCGCTTGGGTTCTAACCTGTTGCCT (site AGCGTCGCTAG) | 1.45
AGCGTCGCTTGGGTTCTAACCTGTTGCCT (site TGCGTCGCTAG) | 0.16
AGCGTTGCTTGGGTTCTAACCTGTTGCCT (site AGCATTGCTAG) | 0.558
AGCGTTGCTTGGGTTCTAACCTGTTGCCT (site AGCCTTGCTAG) | 0.142
AGCGTTGCTTGGGTTCTAACCTGTTGCCT (site AGCGTTGCTAG) | 1.05
AGCGTTGCTTGGGTTCTAACCTGTTGCCT (site AGCTTTGCTAG) | 0.16
AGCTCCGCTTGGGTTCTAACCTGTTGCCT (site AGCTCCGCTAG) | 0.222
AGCTCCGCTTGGGTTCTAACCTGTTGCCT (site TGCTCGGCTAG) | 0.2
AGCTGATCTTGGGTTCTAACCTGTTGCCT (site AGCTGATCTAG) | 0.261
AGCTGATCTTGGGTTCTAACCTGTTGCCT (site CGCTGATCTAG) | 0.0237
AGCTGATCTTGGGTTCTAACCTGTTGCCT (site GGCTGATCTAG) | 0.147
AGCTGATCTTGGGTTCTAACCTGTTGCCT (site TGCTGATCTAG) | 0.015

Sequence | recombinant barcode read abundance (log10)
AGCTGGGCTTGGGTTCTAACCTGTTGCGG (site AGCTGGGCTCC) | 1.6
AGCTGGGCTTGGGTTCTAACCTGTTGCGG (site AGTTGGGCTCA) | 0.393
AGCTTAGCTTGGGTTCTAACCTGTTGCCT (site AGCTTAGCTAG) | 0.555
AGCTTAGCTTGGGTTCTAACCTGTTGCCT (site AGCTTAGCTCG) | 0.577
AGCTTAGCTTGGGTTCTAACCTGTTGCCT (site AGCTTAGCTGG) | 0.206
AGCTTAGCTTGGGTTCTAACCTGTTGCCT (site AGCTTAGCTTG) | 0.158
AGGAACCCTTGGGTTCTAACCTGTTGCTA (site AGGAACCCTAA) | 0.316
AGGAACCCTTGGGTTCTAACCTGTTGCTA (site AGGAACCCTCA) | 0.0647
AGGAACCCTTGGGTTCTAACCTGTTGCTA (site AGGAACCCTGA) | 0.02
AGGAACCCTTGGGTTCTAACCTGTTGCTA (site AGGAACCCTTA) | 1.44
AGGAACCCTTGGGTTCTAACCTGTTGCTC (site AGGAACCCTAA) | 0.19
AGGAACCCTTGGGTTCTAACCTGTTGCTC (site AGGAACCCTCA) | 1.05
AGGAACCCTTGGGTTCTAACCTGTTGCTC (site AGGAACCCTGA) | 0.574
AGGAACCCTTGGGTTCTAACCTGTTGCTC (site AGGAACCCTTA) | 0.0757
AGGAACTCTTGGGTTCTAACCTGTTGCCT (site AGGAACTCTAG) | 2.52
AGGAACTCTTGGGTTCTAACCTGTTGCCT (site CGGAACTCTAG) | 0.573
AGGAATCCTTGGGTTCTAACCTGTTGCTT (site AGGAATCCTAA) | 0.901
AGGAATCCTTGGGTTCTAACCTGTTGCTT (site AGGAGTCCTCA) | 0.0229
AGGACAACTTGGGTTCTAACCTGTTGCCT (site AGAACAACTAG) | 0.106
AGGACAACTTGGGTTCTAACCTGTTGCCT (site AGCACAACTAG) | 0.155
AGGACAACTTGGGTTCTAACCTGTTGCCT (site AGGACAACTAG) | 0.048
AGGACAACTTGGGTTCTAACCTGTTGCCT (site AGTACAACTAG) | 0.181
AGGAGCCCTTGGGTTCTAACCTGTTGCCT (site AGGAGCCCTAG) | 1.48
AGGAGCCCTTGGGTTCTAACCTGTTGCCT (site AGGAGCCCTTG) | 0.0624
AGGAGTACTTGGGTTCTAACCTGTTGCTT (site AGGAGTACTAA) | 0.761
AGGAGTACTTGGGTTCTAACCTGTTGCTT (site GCATCCTCTTG) | 0.12

Sequence | recombinant barcode read abundance (log10)
AGGCCCACTTGGGTTCTAACCTGTTGCAT (site AGGCCCACTAT) | 2.12
AGGCCCACTTGGGTTCTAACCTGTTGCAT (site GCTGAGTCTTA) | 0.109
AGGCCGGCTTGGGTTCTAACCTGTTGCCG (site AGGCCGCCTCG) | 0.294
AGGCCGGCTTGGGTTCTAACCTGTTGCCG (site AGGCCGGCTCG) | 0.329
AGGCCGTCTTGGGTTCTAACCTGTTGCGG (site AGGCCGTCTCC) | 0.815
AGGCCGTCTTGGGTTCTAACCTGTTGCGG (site CACTACCCTAA) | 0.357
AGGCGCCCTTGGGTTCTAACCTGTTGCAC (site AGGCGCCCTAT) | 0.249
AGGCGCCCTTGGGTTCTAACCTGTTGCAC (site AGGCGCCCTCT) | 0.112
AGGCGCCCTTGGGTTCTAACCTGTTGCAC (site AGGCGCCCTGT) | 1.33
AGGCGCCCTTGGGTTCTAACCTGTTGCAC (site AGGCGCCCTTT) | 0.0439
AGGCGTACTTGGGTTCTAACCTGTTGCCT (site AGACGTACTAG) | 0.0558
AGGCGTACTTGGGTTCTAACCTGTTGCCT (site AGCCGTACTAG) | 0.302
AGGCGTACTTGGGTTCTAACCTGTTGCCT (site AGGCGTACTAG) | 0.465
AGGCGTACTTGGGTTCTAACCTGTTGCCT (site AGTCGTACTAG) | 0.0768
AGGCGTCCTTGGGTTCTAACCTGTTGCCA (site AGGCGTCCTAG) | 0.181
AGGCGTCCTTGGGTTCTAACCTGTTGCCA (site AGGCGTCCTCG) | 0.056
AGGCGTCCTTGGGTTCTAACCTGTTGCCA (site AGGCGTCCTGG) | 0.315
AGGCGTCCTTGGGTTCTAACCTGTTGCCA (site AGGCGTCCTTG) | 0.802
AGGCTCCCTTGGGTTCTAACCTGTTGCCT (site AGACTCCCTAG) | 0.193
AGGCTCCCTTGGGTTCTAACCTGTTGCCT (site AGCCTCCCTAG) | 0.0453
AGGCTCCCTTGGGTTCTAACCTGTTGCCT (site AGGCTCCCTAG) | 0.547
AGGCTCCCTTGGGTTCTAACCTGTTGCCT (site AGTCTCCCTAG) | 0.619
AGGCTGTCTTGGGTTCTAACCTGTTGCCT (site AGGCTGACTAG) | 0.54
AGGCTGTCTTGGGTTCTAACCTGTTGCCT (site AGGCTGCCTAG) | 0.613
AGGCTGTCTTGGGTTCTAACCTGTTGCCT (site AGGCTGGCTAG) | 0.0597
